# pIC50: −log10 of the molar value.
# Tests used:
# [1] = in vivo; cited from earlier work
# MAO-B in platelets = target: T1, MAO-B in platelets (Homo sapiens, UniProt P27338); conditions: 100 mg dose, cited from earlier work
# T1 construct: host or cells: platelets
# T1 sequence (P27338 1-520): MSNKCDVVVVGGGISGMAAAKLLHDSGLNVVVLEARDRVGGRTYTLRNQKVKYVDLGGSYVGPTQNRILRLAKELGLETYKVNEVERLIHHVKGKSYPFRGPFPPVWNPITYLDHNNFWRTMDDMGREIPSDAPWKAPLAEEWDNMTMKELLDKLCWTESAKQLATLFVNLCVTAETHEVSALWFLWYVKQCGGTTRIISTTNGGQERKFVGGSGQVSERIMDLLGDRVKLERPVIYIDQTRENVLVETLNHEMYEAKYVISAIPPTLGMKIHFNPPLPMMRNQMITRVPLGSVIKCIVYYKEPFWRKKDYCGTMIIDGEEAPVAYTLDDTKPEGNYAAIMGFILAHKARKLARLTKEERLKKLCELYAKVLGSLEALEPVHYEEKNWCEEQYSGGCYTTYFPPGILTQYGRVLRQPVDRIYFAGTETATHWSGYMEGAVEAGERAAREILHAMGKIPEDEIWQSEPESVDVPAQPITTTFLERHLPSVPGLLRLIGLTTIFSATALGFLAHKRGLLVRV
# MAO = conditions: cited from earlier work
# MAO-B = target: T2, MAO-B (Sus scrofa, UniProt Q6PLK3); assay: S9 liver fraction kynuramine/4HQ LCMS assay, dilution series (Examples 5 and 6); assay type: biochemical; conditions: read-out: 50% inhibition concentration (equivalent); porcine S9 fraction, kynuramine, 1 hr 37 C
# T2 sequence (Q6PLK3 2-520): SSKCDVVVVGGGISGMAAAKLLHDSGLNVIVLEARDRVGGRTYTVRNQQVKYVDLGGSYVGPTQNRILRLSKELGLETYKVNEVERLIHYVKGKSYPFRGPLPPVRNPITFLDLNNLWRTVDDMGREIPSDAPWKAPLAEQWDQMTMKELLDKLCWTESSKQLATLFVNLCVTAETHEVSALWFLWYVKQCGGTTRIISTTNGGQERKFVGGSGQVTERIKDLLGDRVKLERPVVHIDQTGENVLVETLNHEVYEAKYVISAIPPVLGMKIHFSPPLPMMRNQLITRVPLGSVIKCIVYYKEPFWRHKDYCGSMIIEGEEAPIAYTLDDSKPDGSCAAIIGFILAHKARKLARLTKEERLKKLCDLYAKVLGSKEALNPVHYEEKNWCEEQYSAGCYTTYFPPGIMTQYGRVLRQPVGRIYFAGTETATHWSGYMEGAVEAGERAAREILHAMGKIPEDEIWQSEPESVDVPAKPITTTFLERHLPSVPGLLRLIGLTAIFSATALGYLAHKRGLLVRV
# Protocol: We used a porcine S9 liver microsome fraction as the source of the MAO-A and MAO-B enzymes.
# The S9 porcine fraction was mixed with a specific MAO substrate (kynuramine) and mixed with the test sample and buffer. After 1 hr at 37° C. the reaction was halted by cooling and addition of 2N NaOH and acetonitrile. The centrifuged sample was then analysed using LCMS and the level of 4-quinolol (4HQ) product measured.
# The S9 liver microsome fraction containing the crude enzyme mix was from a frozen bulk sample derived from porcine liver.
# Samples were prepared in a 6-well plate (deep well format with 1.1 ml strip tubes). The assay was performed by diluting the crude S9 fraction with buffer (PBS, PH 7.4, diluted 1 in 5, 150 μl) and adding the test sample dissolved in buffer (75 ul). An aliquot of kynuramine was added (10 μl of 1 mg/ml) and the plate was placed in a 37 C water bath for 1 hr. The plate was cooled in ice water before addition of 20 μl 2N NaOH followed by 250 μl acetonitrile. The individual strip tubes were centrifuged, and samples taken from each for LCMS analysis.
# The LCMS analysis was performed using a Cyano HPLC column eluted with 0.1% formic in water and acetonitrile. The LC run was isocratic mode (40% Acetonitrile) and the relative levels of 4 hydroxy quinoline (4HQ) and kynuramine determined from peak areas. […] Kynuramine is converted to 4HQ by the MAO-B enzyme. […]
# [2] = human, in vivo
# Protocol: Subjective feeling questionnaires and venous blood samples were collected at various timepoints over 8 h. […] Participants and trial coordinators were masked as to which intervention drink participants consumed. Before each trial day, participants excluded foods and supplements high in polyphenol compounds from their diet, for 24 h. They fasted for at least 10 h before consuming an Almond with Vanilla One Square Meal Bar® (Cookie Time Ltd) for breakfast, 2 h before the start of the trial. Participants arrived at the PFR Clinical Facility, where they were made comfortable. After 5 min at rest, they completed visual analogue scale (VAS) subjective feelings questionnaires and then donated a venous blood sample. After which, they were served their intervention beverage and were instructed to consume it as quickly as possible. […]
# The plasma samples (350 μL) were spiked with malvidin 3-O-galactoside and further acidified with phosphoric acid prior to clean up on a SOLAμ™ Solid Phase Extraction plate. […] Quantifications of individual and total anthocyanins were performed using the internal standard ratio method using MultiQuant software, and all results are reported as cyanidin 3-O-glucoside equivalents. Quantification of sarmentosin was performed using an external reference standard supplied by Stephen Bloor (Callaghan Institute).
# MAO-A = target: T3, MAO-A (Homo sapiens, UniProt P21397); conditions: in vivo; cited from earlier work
# T3 construct: purchased Sigma-Aldrich MAK295/296
# T3 sequence (P21397 1-527): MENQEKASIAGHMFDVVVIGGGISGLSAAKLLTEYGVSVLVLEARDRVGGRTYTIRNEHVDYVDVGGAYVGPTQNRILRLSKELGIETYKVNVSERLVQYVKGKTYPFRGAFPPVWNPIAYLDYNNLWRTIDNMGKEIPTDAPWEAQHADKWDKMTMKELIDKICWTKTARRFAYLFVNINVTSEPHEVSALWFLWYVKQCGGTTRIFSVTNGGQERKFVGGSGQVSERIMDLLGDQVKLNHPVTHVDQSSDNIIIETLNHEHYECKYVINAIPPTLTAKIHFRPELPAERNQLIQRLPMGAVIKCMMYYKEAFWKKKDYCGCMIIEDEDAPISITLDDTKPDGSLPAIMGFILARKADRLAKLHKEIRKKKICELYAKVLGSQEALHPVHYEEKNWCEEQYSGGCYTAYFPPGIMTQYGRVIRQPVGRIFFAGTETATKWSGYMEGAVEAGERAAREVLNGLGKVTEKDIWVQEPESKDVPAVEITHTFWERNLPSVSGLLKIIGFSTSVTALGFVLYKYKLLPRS
smiles,measurement,setting,value
O=C(NCCN1CCOCC1)c1ccc(Cl)cc1 [Moclobemide],elimination half-life,[1],1 to 3 h
same,time to reach peak (plasma) concentrations,[1],approximately 1 hours
NCCNC(=O)c1ccc(Cl)cn1 [lazabemide],inhibition of MAO-B in platelets,MAO-B in platelets; 30 min post dose,> 90%
same,time at which maximal inhibition subsides,MAO-B in platelets; post dose,16 h
same,time of full restoration of enzyme activity,MAO-B in platelets; post dose,48 h
O=c1c(O)c(-c2ccc(O)c(O)c2)oc2cc(O)cc(O)c12 [quercetin],MAO inhibitory activity by HPLC method,MAO,not active
"N#C/C(=C\CO[C@@H]1O[C@H](CO)[C@@H](O)[C@H](O)[C@H]1O)CO [sarmentosin, 4-(beta-D-glucopyranosyloxy)-2-(hydroxymethyl-2-butenenitrile)]",pIC50,MAO-B,~5.84
same,time of peak concentrations of sarmentosin in plasma,[2],120 min
Cc1cccc(N2CC(CO)OC2=O)c1 (stereo not drawn) [toloxatone],duration of MAO-A inhibition,MAO-A,only six hours

# — patent US20260014180A1, “BIOACTIVES AND THEIR USES” (AREPA IP LIMITED, priority 2022, published 2026)
